Laboratory results as given in ChEMBL document CHEMBL1777678, “2,4-diarylthiazole antiprion compounds as a novel structural class of antimalarial leads” (Bioorg Med Chem Lett, 2011).
Activity calls are given as the source filed them. The rule behind the calls is not given here.

Assays:
[1] = Antiprion activity against Chandler strain of sheep scrapie prion protein infected in mouse SMB cells assessed as clearance of disease-associated scrapie prion protein; type: cell-based, Ovis aries
Plasmodium falciparum [2] = test: Antimalarial malarial activity against chloroquine-sensitive Plasmodium falciparum 3D7 infected in human A positive erythrocytes assessed as inhibition of [3H]hypoxanthine incorporation at 19.3 ug/ml after 24 hrs; type: functional, organism-based
Plasmodium falciparum [3] = test: Antimalarial malarial activity against chloroquine-resistant Plasmodium falciparum K1 infected in human A positive erythrocytes assessed as inhibition of [3H]hypoxanthine incorporation after 24 hrs; type: functional, organism-based
[4] = Cytotoxicity against mouse SMB cells up to 20 uM; type: cell-based
Plasmodium falciparum [5] = test: Antimalarial malarial activity against chloroquine-sensitive Plasmodium falciparum 3D7 infected in human A positive erythrocytes assessed as inhibition of [3H]hypoxanthine incorporation after 24 hrs; type: functional, organism-based
Plasmodium falciparum [6] = test: Antimalarial malarial activity against chloroquine-resistant Plasmodium falciparum K1 infected in human A positive erythrocytes assessed as inhibition of [3H]hypoxanthine incorporation 10 ug/ml after 24 hrs; type: functional, organism-based
[7] = Ovis aries, SMB, read-out: EC50

SMILES	EC50 [1, 7]	inhibition (Plasmodium falciparum [2])	IC50 (Plasmodium falciparum [3])	Activity [4]	IC50 (Plasmodium falciparum [5])	EC50 ([1]; smb)	inhibition (Plasmodium falciparum [6])
CCN(CC)CCNC(=O)c1sc(-c2cccnc2)nc1-c1ccccc1	20 µM	inactive	5.3 µM	Non-toxic			
CN(C)CCNC(=O)c1sc(-c2ccccc2)nc1-c1ccccc1	4.8 µM	inactive	8.8 µM	Toxic			
CCN(CC)CCCC(C)NC(=O)c1sc(-c2ccccc2)nc1-c1ccccc1 (stereo not drawn)	2.9 µM		3.8 µM	Non-toxic	9.5 µM		
CCN(CC)CCCNC(=O)c1sc(-c2ccccc2)nc1-c1ccccc1	2.3 µM		13.3 µM	Non-toxic	1 µM		
CCN(CC)CCNC(=O)c1sc(-c2cccs2)nc1-c1ccccc1	6.7 µM		4.4 µM	Non-toxic	13.8 µM		
O=C(NCCN1CCOCC1)c1sc(-c2ccccc2)nc1-c1ccccc1		inactive		Non-toxic		Not Active	inactive
CCN(CC)CCNC(=O)c1sc(-c2ccc(OC)cc2)nc1-c1ccccc1	4 µM	inactive	7.7 µM	Non-toxic			
O=C(NCc1ccccn1)c1sc(-c2ccccc2)nc1-c1ccccc1			15 µM	Non-toxic	19.7 µM	Not Active	
O=C(c1sc(-c2ccccc2)nc1-c1ccccc1)N1CCC(N2CCCCC2)CC1	1.9 µM		0.83 µM	Non-toxic	20.2 µM		
O=C(NCCCn1ccnc1)c1sc(-c2ccccc2)nc1-c1ccccc1			11.5 µM	Non-toxic	13.9 µM	Not Active	
O=C(c1sc(-c2ccccc2)nc1-c1ccccc1)N1CCC(N2CCCC2)CC1	5.5 µM		6.2 µM	Non-toxic	12 µM		
CCN(CC)CCNC(=O)c1sc(-c2ccccc2)nc1-c1ccccc1	4.9 µM	inactive	0.71 µM	Non-toxic			
CCN(CC)CCCC(C)Nc1ccnc2cc(Cl)ccc12 (stereo not drawn) [CHLOROQUINE]	2.3 µM						
O=C(NCCN1CCCC1)c1sc(-c2ccccc2)nc1-c1ccccc1	10.7 µM	inactive	14.9 µM	Toxic			
